Reference: article PMC10199925, “Cyclodextrin carboxylate improves the stability and activity of nisin in a wider range of application conditions” (NPJ Science of Food, 2023)
Where no end group is shown, it is not given here. [ ]: non-standard residue; d: D form. Dhb = C/C=C(\N)C(=O)O; Dha = C=C(N)C(=O)O

Experiments:
S. aureus [1] = test: MIC by broth microdilution; assay type: cell-based; conditions: nisin 3.125-400 µg/mL, SACD 0.3125-40 mg/mL, 37 °C, 24 h, result in words
Description: (§1) After confirming the antibacterial activity of nisin-SACD complexes, the MIC of nisin-SACD complexes was further measured by the broth microdilution method as reported by Li et al.. […] The initial solutions were then serially diluted until the concentration of them reached 3.125 µg/mL, 0.3125 mg/mL, 0.3125 mg/mL, and 0.3125 mg/mL, respectively. 100 µL of the samples at different concentrations were then cultured with 100 µL S. aureus dilutions containing 10^6 CFU bacteria in 96-well plates. The plates were incubated at 37 °C for 24 h. […] S aureus treated with nisin-SACD and HSS-nisin-SACD at MIC were further stained using a live/dead bacterial double stain kit (LMAI Bio, China), and the number of the total bacteria and dead bacteria could be represented by the fluorescence intensity value directly. Note there is no statistical relationship between the fluorescence intensity of the total bacteria and the dead bacteria, since they are stained by two different fluorescent dyes.

[2] = Thermogravimetric analysis (TG/dTG); assay type: physicochemical; conditions: dry powder, N2 50 mL/min, 10 °C/min, 30 to 600 °C
Description: The thermal behavior of the nisin-SACD complexes was evaluated using a thermogravimetric (TG) analysis system (TGA2, Mettler–Toledo, Schwerzenbach, Switzerland) under N2 (50 mL/min) at a 10 °C/min heating rate over a temperature range from 30 to 600 °C.

S. aureus (ATCC 6538) = test: Antibacterial activity by optical density (OD600) of bacterial culture; assay type: cell-based
Description: The antimicrobial activities of the samples were determined using S. aureus (ATCC 6538) as a representative Gram-positive bacterium. The optical density (OD) was used to assess the antibacterial activity of the nisin and the nisin-SACD complexes[41],[42]. The bacteria were precultured on Luria-Bertani media at 37 °C for 24 h to obtain seed cultures. These seed cultures were then diluted to 10^6 CFU using Luria-Bertani media. […] A bacteria culture containing no sample was used as a blank control group. After incubating at 37 °C for 24 h, the growth of bacteria in the culture media was determined by recording the OD at 600 nm (OD600) using an UV-visible spectrophotometer (UV–1800PC, Mapada, China).

S. aureus [3] = test: Live/dead bacterial double stain fluorescence intensity; assay type: cell-based; conditions: complexes at their MIC levels, result in words
Description: as §1

S. aureus [4] = conditions: pure SACD at a relatively high dose; result in words; cited from earlier work
Description: S. aureus is commonly used as model Gram-positive bacteria to predict the antibacterial effects of the bacteriostatic agent. Meanwhile, it is a significant cause of foodborne illness leading to gastroenteritis, diarrhea, and vomiting. Foods susceptible to S. aureus intoxication including meat, egg, and dairy products. It is known that nisin can deactivate bacteria by adsorbing to the cell membrane, disrupting the cell membrane, and promoting the loss of essential int ...

Nisin (I[Dhb]SI[Dha]LCTPGCKTGALMGCNMKTATCHCSIHV[Dha]K; thioether (positions not given here); not fully specified (residues 3, 8, 13, 23, 25, bridges); UniProt P13068 24-57, looked up) [natural bacteriocin, small peptide of 34 amino acid residues produced by Lactococcus lactis; purchased from Aladdin]
antibacterial effects at the setting concentration range (MIC test) (S. aureus [1]): no significant antibacterial effects
maximum decomposition peak temperature (dTG) [2]: 333 °C
weight loss at the end of heating (TG) [2]: < 7%
OD600 value of the bacterial suspension after treatment (S. aureus (ATCC 6538); 1 mg nisin or 50 mg nisin-SACD (containing 1 mg nisin) in 10 mL culture (10^6 CFU), LB media, 37 °C, 24 h, blank OD600 1.23, n = 3): 0.46
fold decrease of OD600 versus untreated culture (S. aureus (ATCC 6538); as for OD600, relative to blank 1.23): 2.7 fold
total and dead bacteria (fluorescence intensity) in comparison to the untreated group (S. aureus [3]): Certain degree of inhibition on bacteria proliferation

succinic acid-β-cyclodextrin [SACD]
antibacterial effects at the setting concentration range (MIC test) (S. aureus [1]): no significant antibacterial effects
total and dead bacteria (fluorescence intensity) in comparison to the untreated group (S. aureus [3]): Certain degree of inhibition on bacteria proliferation
antibacterial activity against S. aureus (S. aureus [4]): did show antibacterial activity
